According to US11230541B2, “Heterocyclic compound” (Takeda Pharmaceutical Company Limited, priority 2017, dated 2022):

Target: T1, NMDA receptor composed of four subunits including 2 sets of heterodimers of NR1 and NR2B (Homo sapiens, UniProt Q13224)
T1 construct: host or cells: HEK293 (tetracycline-induced expression)
Assay: NR2B Ca2+ influx assay (FLIPR, Fluo-4) in HEK293 cells expressing human GRIN1 and GRIN2B
Assay type: cell-based
Conditions: HEK293, 10 μM final compound concentration, glutamic acid/glycine-induced Ca2+ influx, read-out: inhibitory rate (10 μM compound concentration)
Procedure, shortened: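 Inhibition rate was calculated from 5-min cumulative Fluo-4 signal (FLIPR, 3-s reads), using agonist-free buffer wells as 100% inhibition. Compound, 10 μM final, was applied 15 min before adding buffer with 30 μM glutamic acid and glycine to HEK293 cells with tetracycline-induced human NR1/NR2B, in HEPES pH 7.2 with 1.8 mM CaCl2.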

T1 sequence (Q13224 27-1484, other chains not shown): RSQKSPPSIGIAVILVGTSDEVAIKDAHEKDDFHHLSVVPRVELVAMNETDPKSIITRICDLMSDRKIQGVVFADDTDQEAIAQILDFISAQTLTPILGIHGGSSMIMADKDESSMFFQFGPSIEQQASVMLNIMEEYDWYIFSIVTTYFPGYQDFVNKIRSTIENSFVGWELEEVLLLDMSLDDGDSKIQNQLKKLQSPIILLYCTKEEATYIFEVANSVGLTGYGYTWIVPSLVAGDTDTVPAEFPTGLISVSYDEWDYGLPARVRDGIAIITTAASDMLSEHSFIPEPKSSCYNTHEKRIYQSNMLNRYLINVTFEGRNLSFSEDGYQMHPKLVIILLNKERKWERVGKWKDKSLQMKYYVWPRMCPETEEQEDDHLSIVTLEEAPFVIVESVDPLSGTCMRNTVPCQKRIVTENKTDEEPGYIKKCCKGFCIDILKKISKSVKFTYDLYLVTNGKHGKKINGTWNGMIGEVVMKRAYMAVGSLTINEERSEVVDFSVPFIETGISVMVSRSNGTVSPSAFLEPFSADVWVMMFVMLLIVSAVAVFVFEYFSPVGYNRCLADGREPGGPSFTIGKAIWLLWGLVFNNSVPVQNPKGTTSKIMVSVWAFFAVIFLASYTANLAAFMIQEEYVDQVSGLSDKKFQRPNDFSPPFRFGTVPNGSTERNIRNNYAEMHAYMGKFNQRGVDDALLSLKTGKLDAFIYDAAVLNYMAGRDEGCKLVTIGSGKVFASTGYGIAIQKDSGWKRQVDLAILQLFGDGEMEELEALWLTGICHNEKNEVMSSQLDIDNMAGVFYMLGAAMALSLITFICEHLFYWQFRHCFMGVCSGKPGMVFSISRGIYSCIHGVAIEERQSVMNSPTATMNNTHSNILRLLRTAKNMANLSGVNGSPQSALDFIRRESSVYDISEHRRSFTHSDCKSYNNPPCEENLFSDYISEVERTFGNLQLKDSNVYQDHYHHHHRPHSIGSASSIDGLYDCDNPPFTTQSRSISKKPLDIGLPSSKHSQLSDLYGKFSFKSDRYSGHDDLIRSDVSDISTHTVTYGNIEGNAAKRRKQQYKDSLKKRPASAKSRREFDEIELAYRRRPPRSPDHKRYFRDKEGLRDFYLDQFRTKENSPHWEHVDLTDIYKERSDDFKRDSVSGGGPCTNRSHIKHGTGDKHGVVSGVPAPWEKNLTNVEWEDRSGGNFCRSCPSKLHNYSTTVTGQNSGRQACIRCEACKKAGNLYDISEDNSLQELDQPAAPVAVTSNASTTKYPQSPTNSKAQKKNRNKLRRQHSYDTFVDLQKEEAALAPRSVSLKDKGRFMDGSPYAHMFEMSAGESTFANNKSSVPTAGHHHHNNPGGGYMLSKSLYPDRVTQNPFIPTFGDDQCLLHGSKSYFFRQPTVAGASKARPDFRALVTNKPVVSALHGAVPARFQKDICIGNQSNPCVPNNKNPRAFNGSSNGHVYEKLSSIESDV

inhibition at 10 µM [%] | Structure (SMILES)
53 | COc1ccc2ncn(C)c2c1CNC(=O)Nc1cccc(C)c1 [Example 215, 1-((6-methoxy-1-methyl-1H-benzimidazol-7-yl)methyl)-3-(3-methylphenyl)urea]
78 | COc1ccc2ncn(C)c2c1CNC(=O)Nc1cccc(F)c1 [Example 216, 1-(3-fluorophenyl)-3-((6-methoxy-l-methyl-1H-benzimidazol-7-yl)methyl)urea]
82 | COc1ccc2ncn(C)c2c1CNC(=O)Nc1ccc(F)c(C)c1 [Example 217, 1-(4-fluoro-3-methylphenyl)-3-((6-methoxy-1-methyl-1H-benzimidazol-7-yl)methyl)urea]
93 | COc1ccc2ncn(C)c2c1CNC(=O)Nc1ccc(C)c(F)c1 [Example 218, 1-(3-fluoro-4-methylphenyl)-3-((6-methoxy-1-methyl-1H-benzimidazol-7-yl)methyl)urea]
72 | COc1ccc2ncn(C)c2c1CNC(=O)Nc1cccc(Cl)c1 [Example 219, 1-(3-chlorophenyl)-3-((6-methoxy-1-methyl-1H-benzimidazol-7-yl)methyl)urea]
87 | COc1ccc2ncn(C)c2c1CNC(=O)Nc1cc(F)c(F)c(F)c1 [Example 220, 1-((6-methoxy-1-methyl-lH-benzimidazol-7-yl)methyl)-3-(3,4,5-trifluorophenyl)urea]
88 | COc1ccc2ncn(C)c2c1CNC(=O)Nc1ccc(OC(F)F)cc1 [Example 221, 1-(4-(difluoromethoxy)-phenyl)-3-((6-methoxy-1-methyl-lH-benzimidazol-7-yl)methyl)urea]
55 | COc1ccc2ncn(C)c2c1CNC(=O)Nc1cccc(C(F)(F)F)c1 [Example 222, 1-((6-methoxy-1-methyl-lH-benzimidazol-7-yl)methyl)-3-(3-(trifluoromethyl)-phenyl)urea]
83 | COc1ccc2ncn(C)c2c1CNC(=O)Nc1ccc(OC(F)(F)F)cc1 [Example 223, 1-((6-methoxy-1-methyl-1H-benzimidazol-7-yl)methyl)-3-(4-(trifluoromethoxy)-phenyl)urea]
81 | COc1ccc2ncn(C)c2c1CNC(=O)Nc1ccc(F)cc1 [Example 224, 1-(4-fluorophenyl)-3-((6-methoxy-1-methyl-1H-benzimidazol-7-yl)methyl)urea]
84 | COc1ccc(NC(=O)NCc2c(OC)ccc3ncn(C)c23)cc1F [Example 225, 1-(3-fluoro-4-methoxyphenyl)-3-((6-methoxy-1-methyl-1H-benzimidazol-7-yl)methyl)urea]
94 | O=C(NCc1c(C2CC2)ccc2[nH]nnc12)c1cnc(OC(F)F)c(F)c1 [Example 226, N-((5-cyclopropyl-1H-benzotriazol-4-yl)methyl)-6-(difluoromethoxy)-5-fluoronicotinamide]
97 | COc1ccc2[nH]nnc2c1CNC(=O)c1ccc(OC(F)(F)F)c(F)c1 [Example 227, 3-fluoro-N-((5-methoxy-1H-benzotriazol-4-yl)methyl)-4-(trifluoromethoxy)-benzamide]
70 | COc1ccc2nc(C)n(C)c2c1CNC(=O)c1csc(Cl)c1 [Example 228, 5-chloro-N-((6-methoxy-1,2-dimethyl-1H-benzimidazol-7-yl)methyl)thiophene-3-carboxamide]
62 | COc1ccc2nc(C)n(C)c2c1CNC(=O)c1ccc(Cl)s1 [Example 229, 5-chloro-N-((6-methoxy-1,2-dimethyl-1H-benzimidazol-7-yl)methyl)thiophene-2-carboxamide]
82 | COc1ccc2nc(C)n(C)c2c1CNC(=O)c1csc(C(F)(F)F)c1 [Example 230, N-((6-methoxy-1,2-dimethyl-1H-benzimidazol-7-yl)methyl)-5-(trifluoromethyl)-thiophene-3-carboxamide]
73 | COc1ccc2nc(C)n(C)c2c1CNC(=O)c1ccc(C(F)(F)F)s1 [Example 231, N-((6-methoxy-1,2-dimethyl-lH-benzimidazol-7-yl)methyl)-5-(trifluoromethyl)-thiophene-2-carboxamide]
64 | COc1ccc2nc(C)n(C)c2c1CNC(=O)c1csc(C(F)F)c1 [Example 232, 5-(difluoromethyl)-N-((6-methoxy-1,2-dimethyl-lH-benzimidazol-7-yl)methyl)thiophene-3-carboxamide]
72 | COc1ccc2nc(C)n(C)c2c1CNC(=O)c1ccc(OC(F)(F)F)nc1 [Example 233, N-((6-methoxy-1,2-dimethyl-lH-benzimidazol-7-yl)methyl)-6-(trifluoromethoxy)-nicotinamide]
73 | CCOc1ncc(C(=O)NCc2c(OC)ccc3nc(C)n(C)c23)cc1F [Example 234, 6-ethoxy-5-fluoro-N-((6-methoxy-1,2-dimethyl-lH-benzimidazol-7-yl)methyl)nicotinamide]

inhibition at 10 µM [%] | Structure (SMILES)
57 | COc1ccc2nc(C)n(C)c2c1CNC(=O)c1cnc(OC)c(F)c1 [Example 235, 5-fluoro-6-methoxy-N-((6-methoxy-1,2-dimethyl-1H-benzimidazol-7-yl)methyl)nicotinamide]
59 | COc1ccc2nc(C)n(C)c2c1CNC(=O)c1ccc(C(F)(F)F)c(F)c1 [Example 236, 3-fluoro-N-((6-methoxy-1,2-dimethyl-1H-benzimidazol-7-yl)methyl)-4-(trifluoromethyl)-benzamide]
68 | COc1ccc2nc(C)n(C)c2c1CNC(=O)c1ccc(C(F)(F)F)cc1 [Example 237, N-((6-methoxy-1,2-dimethyl-1H-benzimidazol-7-yl)methyl)-4-(trifluoromethyl)-benzamide]
61 | COc1ccc2nc(C)n(C)c2c1CNC(=O)c1ccc(C)c(F)c1 [Example 238, 3-fluoro-N-((6-methoxy-1,2-dimethyl-1H-benzimidazol-7-yl)methyl)-4-methylbenzamide]
60 | COc1ccc2nc(C)n(C)c2c1CNC(=O)c1cc(F)c(C)c(F)c1 [Example 239, 3,5-difluoro-N-((6-methoxy-1,2-dimethyl-1H-benzimidazol-7-yl)methyl)-4-methylbenzamide]
53 | COc1ccc2nc(C)n(C)c2c1CNC(=O)c1cc(F)c(C(F)F)c(F)c1 [Example 240, 4-(difluoromethyl)-3,5-difluoro-N-((6-methoxy-1,2-dimethyl-1H-benzimidazol-7-yl)methyl)benzamide]
70 | COc1ccc2nc(C)n(C)c2c1CNC(=O)c1ccc(C(F)F)cc1 [Example 241, 4-(difluoromethyl)-N-((6-methoxy-1,2-dimethyl-lH-benzimidazol-7-yl)methyl)benzamide]
69 | COc1ccc2nc(C)n(C)c2c1CNC(=O)c1ccc(C(F)F)c(F)c1 [Example 242, 4-(difluoromethyl)-3-fluoro-N-((6-methoxy-1,2-dimethyl-lH-benzimidazol-7-yl)methyl)benzamide]
69 | COc1ccc(C(=O)NCc2c(OC)ccc3nc(C)n(C)c23)cc1F [Example 243, 3-fluoro-4-methoxy-N-((6-methoxy-1,2-dimethyl-lH-benzimidazol-7-yl)methyl)benzamide]
87 | COc1ccc2nc(C)n(C)c2c1CNC(=O)c1ccc(OC(F)F)c(Cl)c1 [Example 244, 3-chloro-4-(difluoromethoxy)-N-((6-methoxy-1,2-dimethyl-lH-benzimidazol-7-yl)methyl)benzamide]
81 | COc1ccc2nc(C)n(C)c2c1CNC(=O)c1ccc(OC(F)F)cc1 [Example 245, 4-(difluoromethoxy)-N-((6-methoxy-1,2-dimethyl-1H-benzimidazol-7-yl)methyl)benzamide]
87 | COc1ccc2nc(C)n(C)c2c1CNC(=O)c1cc(F)c(OC(F)F)c(F)c1 [Example 246, 4-(difluoromethoxy)-3,5-difluoro-N-((6-methoxy-1,2-dimethyl-1H-benzimidazol-7-y1)methyl)benzamide]
71 | COc1ccc2nc(C)n(C)c2c1CNC(=O)c1ccc(F)c(Cl)c1 [Example 247, 3-chloro-4-fluoro-N-((6-methoxy-1,2-dimethyl-1H-benzimidazol-7-yl)methyl)benzamide]
64 | COc1ccc2nc(C)n(C)c2c1CNC(=O)c1ccc(Cl)c(F)c1 [Example 248, 4-chloro-3-fluoro-N-((6-methoxy-1,2-dimethyl-1H-benzimidazol-7-yl)methyl)benzamide]
57 | COc1ccc2nc(C)n(C)c2c1CNC(=O)c1ccc(Cl)cc1 [Example 249, 4-chloro-N-((6-methoxy-1,2-dimethyl-1H-benzimidazol-7-yl)methyl)benzamide]
58 | COc1ccc2nc(C)n(C)c2c1CNC(=O)c1ccc(C(F)F)c(Cl)c1 [Example 250]
76 | COc1ccc2nc(C)n(C)c2c1CNC(=O)c1cnc(OC(F)F)c(F)c1 [Example 251, 6-(difluoromethoxy)-5-fluoro-N-((6-methoxy-1,2-dimethyl-1H-benzimidazol-7-yl)methyl)nicotinamide]
88 | COc1ccc2nc(C)n(C)c2c1CNC(=O)c1ccc(OC(F)(F)F)cc1 [Example 252, N-((6-methoxy-l,2-dimethyl-1H-benzimidazol-7-yl)methyl)-4-(trifluoromethoxy)-benzamide]
84 | COc1ccc2nc(C)n(C)c2c1CNC(=O)c1ccc(OC(F)F)c(F)c1 [Example 253, 4-(difluoromethoxy)-3-fluoro-N-((6-methoxy-1,2-dimethyl-1H-benzimidazol-7-yl)methyl)benzamide]
69 | COc1ccc2nc(C)n(C)c2c1CNC(=O)c1ccc(OC(F)F)nc1 [Example 254, 6-(difluoromethoxy)-N-((6-methoxy-1,2-dimethyl-lH-benzimidazol-7-yl)methyl)nicotinamide]
